Data as given in paper PMC4657044, “Live detection and purification of cells based on the expression of a histone chaperone, HIRA, using a binding peptide” (Scientific Reports, 2015).
No end group written: not given here.

Key:
HSC-4 cells [1] = assay: FACS of fixed HSC-4 cells with and without saponin permeabilization; format: cell-based, human; conditions: fixed (4% PFA) HSC-4 cells, 10 μM FITC-labelled peptide, with or without 0.3% saponin, buffer with 1% FBS, 1 h at room temperature; FACS fluorescence
Description: (§1) TM2-FITC was used for FACS analyses with and without permeabilization of fixed HSC-4 cells using saponin. […] To check whether it can be used for live sorting, live HSC-4 cells were stained with the peptide and analyzed by FACS. […] The live uptake of TM2-FITC by HSC-4 monolayer cells was visualized under microscope immediately after washing off the staining solution (Fig. 2c).
(§2) FACS analysis was performed as reported previously. Monolayer cells were trypsinized and fixed using 4% PFA, and peptide labeled with FITC (10 μM) was added to the cells in presence or absence of 0.3% saponin in a buffer containing 1%FBS, and incubated for one hour at room temperature. For live sorting, the cells were resuspended in 75 μl of PBS containing the peptide for one hour. Cells were diluted with 200 μl of PBS and sorted immediately using FACS Aria II.

[2] = system: HSC-4 cells and Hira-/- ES cells; assay: FACS of live HSC-4 / Hira-/- ES cell mixture dual stained with TM2-FITC and CD44-PE; format: cell-based
Text: (§3) Since TM2-FITC binds to its target in live cells without any permeabilizing agents, we sought the possibility of its use in live sorting. We tried to separate HIRA expressing cells from HIRA deficient cells using FACS. We took oral cancer cell line HSC-4, which expresses HIRA, and mixed with Hira^−/− ES cells in 2.5:1 ratio. […] These cells were sorted out as positive and negative populations with gates P2 and P3 and were allowed to grow for 5 days in 8-well chamber slide. The DIC images confirm that the positive population was HSC-4 keratinocytes and the negative population was ES cells (Fig. 3b). Again wild type ES cells and Hira^−/− ES cells were mixed in 1:1 ratio and sorted as mentioned before. […] These cells grown in slide chambers were stained with antibodies for HIRA and an epithelial marker, CD44. […] The cross contamination in P3 population for the mixture of null and wild type ES cells was <4%. Since 5 days of growth in ES culture medium might give a selection advantage for ES cells over the contaminating keratinocytes, another FACS was performed to check the false positivity and negativity. HSC-4 cells and Hira^−/− ES cells were stained alone or in mixture with the TM2-FITC and CD44-PE and analyzed by FACS. […] The false positivity that we observed in P4 population could be overcome by a stringent gating as we have done in Fig 3. To further ascertain the false positivity in sorting based on TM2-FITC, the mixture of two cell types were separated for HIRA a positivity as shown in Fig. 4d. The positive population was analyzed for possible cross contamination for ES cells as shown by CD44 negativity. […] Comparing the cost of peptide synthesis with antibody development, this method is more cost effective than conventional antibodies. In future, the strategy can be improved by modifications that increases the retention time of the peptide, to ensure more purity. We argue that this approach will have immense use in cell biology, developmental biology and clinical applications.
Figure 4 Specificity of TM2-FITC live sorting. (a) The FACS profiles of live HSC-4 cells and ES cells alone or in a mixture stained with TM2-FITC and CD44-PE. The two populations in P2 and P4 gate were selected for CD44 positivity. (b) Sorted cells were further analyzed for HIRA positivity (c) The dual stained cells were separated for both FITC and PE. The positivity of different populations is marked. (d) The mixture of two cell types were separated for HIRA positivity and the P2 population was further analyzed for CD44 positivity.
(§4) FACS analysis was performed as reported previously. […]

HSC-4 cells [3] = assay: FACS of live HSC-4 cells stained with the peptide; format: cell-based, human
Description: as §1, §2

[4] = system: HSC-4 cells and Hira-/- ES cells; assay: Live sorting of a mixture of HSC-4 cells and Hira-/- ES cells; format: cell-based
Text: Since TM2-FITC binds to its target in live cells without any permeabilizing agents, we sought the possibility of its use in live sorting. We tried to separate HIRA expressing cells from HIRA deficient cells using FACS. We took oral cancer cell line HSC-4, which expresses HIRA, and mixed with Hira^−/− ES cells in 2.5:1 ratio. […] These cells were sorted out as positive and negative populations with gates P2 and P3 and were allowed to grow for 5 days in 8-well chamber slide. The DIC images confirm that the positive population was HSC-4 keratinocytes and the negative population was ES cells (Fig. 3b). Again wild type ES cells and Hira^−/− ES cells were mixed in 1:1 ratio and sorted as mentioned before. […] These cells grown in slide chambers were stained with antibodies for HIRA and an epithelial marker, CD44. […] The cross contamination in P3 population for the mixture of null and wild type ES cells was <4%. Since 5 days of growth in ES culture medium might give a selection advantage for ES cells over the contaminating keratinocytes, another FACS was performed to check the false positivity and negativity. HSC-4 cells and Hira^−/− ES cells were stained alone or in mixture with the TM2-FITC and CD44-PE and analyzed by FACS. […] The positive population was analyzed for possible cross contamination for ES cells as shown by CD44 negativity. […]

HIRA [5] = target: T1, HIRA (Mus musculus, UniProt Q61666); assay: Immunofluorescence of fixed and permeabilized wild type and Hira-/- W9.5 ES cells; format: cell-based; conditions: fixed and permeabilized mouse W9.5 wild type versus Hira-/- ES cells; confocal microscopy
T1 construct: endogenous in cells; host or cells: mouse W9.5 ES cells (wild type)
Text: (§5) One of the problems that could emerge in a peptide-based detection is its specificity. To confirm whether the peptide detects correct molecule, we performed a western blot using biotin-tagged peptide, a novel approach for showing specificity. TM2 was tagged with biotin and purified by size exclusion chromatography, and was used instead of primary antibody in western blot. The blot was developed with streptavidin-HRP and ECL to get a single band at 110 kDa, as observed in antibody-based detection (Fig. 1b). The peptide was tagged to FITC and was used for immunofluorescence in comparison with HIRA antibody. The staining pattern in fixed and permeabilized oral cancer cell line HSC-4 was similar in both TM2-FITC and HIRA antibody (Fig. 1c), confirming the specificity. To rule out nonspecific binding of peptide we selected HIRA-knock out cells. So, we analyzed the specificity using mouse W9.5 (wild type) and Hira^−/− W9.5 ES cells, reported earlier. Since we designed peptides using human sequence, and the cell line is of mouse origin we compared the sequence similarity of binding region of both HIRA and H2B across the two species. […] So we anticipated that the peptide will recognize mouse HIRA as well.
(§6) Monolayer cells seeded in micro slide chamber were fixed using 4% paraformadehyde (PFA), permeabilized with 0.3% Triton X-100/PBS (PBST) and blocked with 2% serum as described previously. […]

HIRA [6] = target: T2, HIRA (Homo sapiens, UniProt P54198); assay: Immunofluorescence of fixed and permeabilized HSC-4 cells; format: cell-based; conditions: fixed (4% PFA) and permeabilized (0.3% Triton X-100) HSC-4 cells; overnight at 4 °C; confocal microscopy
T2 construct: We took oral cancer cell line HSC-4, which expresses HIRA; endogenous in cells; host or cells: HSC-4
Text: as §5, §6

[7] = system: wild type ES cells and Hira-/- ES cells; assay: Live sorting of a mixture of wild type and Hira-/- ES cells; format: cell-based, mouse
Text: as §3, §4

[8] = system: wild type and Hira-/- ES cells; assay: Live uptake by ES cells under the confocal microscope; format: cell-based, mouse; conditions: live wild type and Hira-/- ES cells grown in confocal dishes, TM2-FITC; fluorescence microscopy
Text: as §1
(a) The FACS profile of fixed HSC-4 cells stained with TM2-FITC. (b) Live cells were stained with the TM2-FITC as described under methods and analyzed in FACS Aria II. (c) HSC-4 cells were grown in confocal dishes and incubated with TM2-FITC diluted in PBS for 1 h. Prior to imaging the cells were briefly washed and imaged (d) ES cells were grown in confocal dishes and stained using TM2-FITC. Hoechst 33342 dye was used to visualize the nucleus. The scale bar represents 10 μm.

[9] = mixture of live HSC-4 and Hira-/- ES cells, TM2-FITC and CD44-PE, Fig. 4b

T2 sequence (P54198 whole entry): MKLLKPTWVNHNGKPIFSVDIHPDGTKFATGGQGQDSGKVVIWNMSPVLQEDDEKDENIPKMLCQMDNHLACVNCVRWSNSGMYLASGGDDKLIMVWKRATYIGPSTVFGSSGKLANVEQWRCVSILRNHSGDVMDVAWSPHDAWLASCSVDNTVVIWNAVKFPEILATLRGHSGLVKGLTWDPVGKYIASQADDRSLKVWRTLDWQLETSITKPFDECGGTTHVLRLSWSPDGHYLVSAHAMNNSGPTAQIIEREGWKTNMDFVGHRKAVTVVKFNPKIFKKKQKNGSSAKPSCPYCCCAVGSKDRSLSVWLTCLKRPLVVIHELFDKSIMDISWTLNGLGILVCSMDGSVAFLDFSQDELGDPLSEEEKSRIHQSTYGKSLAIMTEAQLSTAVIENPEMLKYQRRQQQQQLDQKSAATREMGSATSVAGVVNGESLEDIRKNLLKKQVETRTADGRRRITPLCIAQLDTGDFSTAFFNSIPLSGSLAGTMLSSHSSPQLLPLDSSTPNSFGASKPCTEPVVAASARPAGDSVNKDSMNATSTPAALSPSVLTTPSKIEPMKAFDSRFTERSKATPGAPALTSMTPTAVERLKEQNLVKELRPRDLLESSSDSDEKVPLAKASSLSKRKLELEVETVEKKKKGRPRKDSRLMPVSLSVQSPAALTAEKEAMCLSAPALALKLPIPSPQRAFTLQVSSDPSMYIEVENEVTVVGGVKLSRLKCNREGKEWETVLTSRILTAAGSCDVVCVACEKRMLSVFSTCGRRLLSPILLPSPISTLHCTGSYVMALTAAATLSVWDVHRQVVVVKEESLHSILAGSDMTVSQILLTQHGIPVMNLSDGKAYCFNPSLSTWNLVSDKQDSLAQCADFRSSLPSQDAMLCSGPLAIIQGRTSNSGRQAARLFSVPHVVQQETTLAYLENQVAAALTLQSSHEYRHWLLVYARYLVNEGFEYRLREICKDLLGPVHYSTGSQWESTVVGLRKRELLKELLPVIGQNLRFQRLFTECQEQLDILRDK
T1 sequence (Q61666 whole entry): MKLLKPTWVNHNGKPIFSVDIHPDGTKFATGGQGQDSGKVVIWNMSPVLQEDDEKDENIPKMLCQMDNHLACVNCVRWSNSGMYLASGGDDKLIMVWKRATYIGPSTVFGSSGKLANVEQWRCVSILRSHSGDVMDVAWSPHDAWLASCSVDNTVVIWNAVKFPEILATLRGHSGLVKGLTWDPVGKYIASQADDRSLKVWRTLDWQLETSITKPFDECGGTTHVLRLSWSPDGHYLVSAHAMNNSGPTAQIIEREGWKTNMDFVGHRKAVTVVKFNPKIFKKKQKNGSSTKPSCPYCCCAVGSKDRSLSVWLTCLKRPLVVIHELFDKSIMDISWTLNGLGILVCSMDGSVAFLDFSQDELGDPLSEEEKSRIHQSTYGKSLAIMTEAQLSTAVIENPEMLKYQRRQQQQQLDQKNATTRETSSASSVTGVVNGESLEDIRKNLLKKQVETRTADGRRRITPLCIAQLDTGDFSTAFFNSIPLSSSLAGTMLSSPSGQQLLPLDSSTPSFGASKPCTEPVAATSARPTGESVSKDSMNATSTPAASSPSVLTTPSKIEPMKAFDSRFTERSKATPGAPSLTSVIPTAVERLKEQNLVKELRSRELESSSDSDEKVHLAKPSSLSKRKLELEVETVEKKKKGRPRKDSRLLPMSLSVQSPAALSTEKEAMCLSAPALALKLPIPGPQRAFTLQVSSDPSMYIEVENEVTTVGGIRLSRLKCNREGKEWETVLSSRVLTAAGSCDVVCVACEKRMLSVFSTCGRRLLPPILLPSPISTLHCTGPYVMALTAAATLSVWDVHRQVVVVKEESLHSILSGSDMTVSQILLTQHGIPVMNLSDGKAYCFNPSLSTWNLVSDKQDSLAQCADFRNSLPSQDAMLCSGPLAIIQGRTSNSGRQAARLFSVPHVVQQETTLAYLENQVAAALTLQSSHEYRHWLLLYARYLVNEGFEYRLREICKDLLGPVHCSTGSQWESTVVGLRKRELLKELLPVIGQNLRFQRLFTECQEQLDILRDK

## PKKGSKKAVTKAQKKDGA-NH2 [TM2]
HSC-4 cells [1]
  cell permeability / internalization: cell permeable

## TM2-FITC: TM2 peptide tagged to FITC, used for immunofluorescence, FACS and live sorting (PKKGSKKAVTKAQKKDGA-NH2; also: FITC, site not given here)
[2]; dual stained cells separated for both FITC and PE, Fig. 4c
  false positive ratio in dual staining: 0.6%
[2]; [9]
  HIRA positivity of CD44+ population (P2): 82%
  false HIRA positivity of Hira-/- ES cells (CD44 negative, P4): 2.7%
[2]; mixture separated for HIRA positivity, P2 population analysed for CD44, Fig. 4d
  false positive ratio (CD44 negative cells in the HIRA positive population): 0.9%
HSC-4 cells [3]; live HSC-4 cells stained with the peptide, FACS
  signal after washing with peptide free solution: loss of the signal
HSC-4 cells [3]; live HSC-4 cells, no permeabilization, peptide in 75 μl PBS for 1 h, diluted with 200 μl PBS, FACS Aria II
  cells positive for HIRA: 85%
HSC-4 cells [1]
  cell permeability / internalization: internalized without permeabilization
[4]; live HSC-4 and Hira-/- ES cells mixed 2.5:1 (2.5x10^5 / 1x10^5), expected 71.4%, FACS
  HIRA positive cells observed (gate P2): 65.7%
[4]; sorted cells grown 5 days in 8-well chamber slide, stained with HIRA and CD44 antibodies
  contamination of sorted P3 (negative) population by CD44+HIRA+ cells: < 1%
HIRA [5]
  staining of HIRA-/- ES cells (specificity): absence of staining
HIRA [6]
  staining pattern compared with HIRA antibody: similar
[7]; cells sorted live with TM2-FITC, grown 5 days in 8-well chamber slide, DIC images
  viability of sorted ES cells: viable and formed colonies in 5 days
[7]; live wild type ES and Hira-/- ES cells mixed 1:1 (1x10^5 / 1x10^5), expected 50%, FACS
  observed ratio of positivity (gate P2): 49.6%
[7]; mixture of null and wild type ES cells, sorted cells grown 5 days, stained with HIRA antibody
  cross contamination in sorted P3 (negative) population: < 4%
[8]
  live uptake pattern in ES cells: limited to the wild type ES cells
